{"source": "patent US7799535B1", "about": "(priority 1997, dated 2010)", "key": {"[1]": {"molecular_target": "35S-PrPC (Mesocricetus auratus, UniProt P04273)", "sequence (P04273 23-231 limits assumed)": "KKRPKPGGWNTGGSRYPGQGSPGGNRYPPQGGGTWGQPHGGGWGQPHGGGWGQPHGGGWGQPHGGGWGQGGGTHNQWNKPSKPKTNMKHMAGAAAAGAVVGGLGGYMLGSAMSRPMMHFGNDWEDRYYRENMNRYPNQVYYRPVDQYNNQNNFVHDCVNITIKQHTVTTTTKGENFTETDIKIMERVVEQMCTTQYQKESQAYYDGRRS", "type": "biochemical, hamster"}, "[2]": {"molecular_target": "T1, Hsp104 (Saccharomyces cerevisiae, UniProt P31539)", "T1 sequence (P31539 whole entry, looked up)": "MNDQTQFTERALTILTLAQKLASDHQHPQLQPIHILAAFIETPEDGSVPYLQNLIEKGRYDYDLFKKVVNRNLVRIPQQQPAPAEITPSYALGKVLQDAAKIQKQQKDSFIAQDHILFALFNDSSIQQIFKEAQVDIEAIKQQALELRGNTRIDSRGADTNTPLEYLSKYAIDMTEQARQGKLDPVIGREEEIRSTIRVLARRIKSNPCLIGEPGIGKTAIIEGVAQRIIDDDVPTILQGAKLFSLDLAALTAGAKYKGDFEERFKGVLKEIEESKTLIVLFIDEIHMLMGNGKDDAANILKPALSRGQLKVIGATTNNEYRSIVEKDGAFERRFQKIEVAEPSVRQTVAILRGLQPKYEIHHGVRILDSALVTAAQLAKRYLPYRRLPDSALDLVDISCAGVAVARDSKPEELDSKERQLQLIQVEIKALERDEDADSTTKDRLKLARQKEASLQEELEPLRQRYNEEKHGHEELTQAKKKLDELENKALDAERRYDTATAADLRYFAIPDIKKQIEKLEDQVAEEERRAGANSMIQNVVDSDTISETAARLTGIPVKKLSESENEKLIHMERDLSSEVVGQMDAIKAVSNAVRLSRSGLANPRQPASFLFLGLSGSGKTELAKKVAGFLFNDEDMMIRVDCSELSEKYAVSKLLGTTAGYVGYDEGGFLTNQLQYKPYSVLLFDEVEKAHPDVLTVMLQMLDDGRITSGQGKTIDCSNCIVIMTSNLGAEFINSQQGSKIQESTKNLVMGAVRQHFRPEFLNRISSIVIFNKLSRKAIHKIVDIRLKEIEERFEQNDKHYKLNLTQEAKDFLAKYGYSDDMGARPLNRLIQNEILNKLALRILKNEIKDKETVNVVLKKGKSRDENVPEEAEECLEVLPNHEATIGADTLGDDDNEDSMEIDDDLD", "type": "binding, yeast"}, "[3]": {"molecular_target": "T1, Hsp104", "type": "biochemical, yeast"}, "[4]": {"molecular_target": "rPrPβ (Mesocricetus auratus, UniProt P04273)", "sequence (P04273 90-231 limits assumed)": "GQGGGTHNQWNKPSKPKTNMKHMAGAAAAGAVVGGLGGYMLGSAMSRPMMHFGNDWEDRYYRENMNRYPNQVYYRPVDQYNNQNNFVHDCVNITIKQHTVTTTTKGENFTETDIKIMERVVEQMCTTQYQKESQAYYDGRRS", "type": "binding, hamster", "settings": "LSB2; each at 0.5 mg/ml; 37° C. for 1 hr"}, "[5]": {"molecular_target": "Sup35 (Saccharomyces cerevisiae, UniProt P05453)", "sequence (P05453 whole entry)": "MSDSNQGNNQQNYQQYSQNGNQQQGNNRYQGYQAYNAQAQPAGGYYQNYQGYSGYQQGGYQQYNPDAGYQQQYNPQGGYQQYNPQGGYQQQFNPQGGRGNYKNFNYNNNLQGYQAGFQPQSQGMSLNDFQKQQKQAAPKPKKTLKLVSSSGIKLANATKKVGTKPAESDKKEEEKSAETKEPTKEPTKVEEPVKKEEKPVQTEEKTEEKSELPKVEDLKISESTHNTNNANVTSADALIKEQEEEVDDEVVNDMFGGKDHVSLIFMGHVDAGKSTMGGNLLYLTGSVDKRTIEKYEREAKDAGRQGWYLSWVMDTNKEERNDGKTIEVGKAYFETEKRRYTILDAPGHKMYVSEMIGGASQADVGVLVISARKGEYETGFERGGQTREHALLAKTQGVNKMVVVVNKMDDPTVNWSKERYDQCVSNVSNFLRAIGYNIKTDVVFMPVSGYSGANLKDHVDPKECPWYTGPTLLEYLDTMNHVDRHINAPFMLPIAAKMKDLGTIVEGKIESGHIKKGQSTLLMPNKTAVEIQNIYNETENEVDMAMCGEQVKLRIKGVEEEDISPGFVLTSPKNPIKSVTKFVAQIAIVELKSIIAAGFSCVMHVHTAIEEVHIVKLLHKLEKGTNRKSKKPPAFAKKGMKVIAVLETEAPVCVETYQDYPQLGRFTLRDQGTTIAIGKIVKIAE", "assay": "Circular dichroism spectral shifts of mixtures with Sup35", "type": "binding, yeast", "settings": "LSB1; 1 hr, 1 mM ATP, 37° C.", "experimental": "Reactions were incubated for 1 hr with 1 mM ATP at 37° C., and transferred to a 0.1 mm path-length cuvette. Spectra were recorded at 25° C. in a Jasco 715 spectropolarimeter (bandwidth 1.0 nm, response time 16 sec, speed 20 nm/min, step resolution 0.2 nm, accumulations 4)."}, "[6]": {"settings": "reactions seeded with partially denatured PrPSc"}, "[7]": {"settings": "reactions seeded with untreated PrPSc"}}, "note": "Like-named read-outs stand apart in the source and are kept apart here.", "data": [{"compound": "OCC(O)CO", "note": "[glycerol]", "values": [{"measurement": "effect of chemical chaperones on 35S-PrPC conversion", "setting": "[1]; [6]", "result": "no effect"}, {"measurement": "effect of chemical chaperones on 35S-PrPC conversion", "setting": "[1]; [7]", "result": "None of the compounds tested affected"}, {"measurement": "effect of chemical chaperones on 35S-PrPC conversion", "setting": "[1]; reactions without PrPSc", "result": "None of the compounds tested affected"}]}, {"compound": "Nc1ncnc2c1ncn2[C@@H]1O[C@H](COP(=O)(O)OP(=O)(O)OP(=O)(O)O)[C@@H](O)[C@H]1O", "note": "[ATP]", "values": [{"measurement": "rate of change in CD spectrum with Sup35 and Hsp104", "setting": "[2]", "result": "markedly increased the rate"}]}, {"compound": "C[S+](C)[O-]", "note": "[DMSO, dimethyl sulfoxide]", "values": [{"measurement": "effect on conversion", "setting": "[1]; partially denatured PrPSc, higher levels (up to 30%)", "result": "virtually eliminated conversion"}, {"measurement": "stimulation of conversion", "setting": "[1]; partially denatured PrPSc, intermediate levels (1-3%)", "result": "2-3 fold"}, {"measurement": "effect of chemical chaperones on 35S-PrPC conversion", "setting": "[1]; [7]", "result": "None of the compounds tested affected"}, {"measurement": "effect of chemical chaperones on 35S-PrPC conversion", "setting": "[1]; reactions without PrPSc", "result": "None of the compounds tested affected"}]}, {"compound": "β-amyloid 1-40: a less amyloidogenic derivative of β-amyloid", "values": [{"measurement": "effect on the ATPase activity of Hsp104 (in words)", "setting": "[3]", "result": "Less inhibition"}]}, {"compound": "α-2 macroglobulin", "values": [{"measurement": "CD spectrum of mixture with rPrPβ compared with predicted spectrum", "setting": "[4]", "result": "much smaller"}, {"measurement": "CD spectrum of mixture with Hsp104 compared with predicted spectrum", "setting": "[2]", "result": "observed spectra matched the predicted spectra"}, {"measurement": "CD spectrum of mixture with Sup35 compared with predicted spectrum", "setting": "[5]", "result": "observed spectra matched the predicted spectra"}]}, {"compound": "β-amyloid 1-42: amyloidogenic peptide, fragment found in neural plaques associated with Alzheimer's disease", "values": [{"measurement": "effect on the ATPase activity of Hsp104 (in words)", "setting": "[3]", "result": "inhibited"}]}, {"compound": "α-lactalbumin", "values": [{"measurement": "CD spectrum of mixture with rPrPβ compared with predicted spectrum", "setting": "[4]", "result": "much smaller"}, {"measurement": "CD spectrum of mixture with Hsp104 compared with predicted spectrum", "setting": "[2]", "result": "observed spectra matched the predicted spectra"}, {"measurement": "CD spectrum of mixture with Sup35 compared with predicted spectrum", "setting": "[5]", "result": "observed spectra matched the predicted spectra"}]}, {"compound": "OC[C@H]1O[C@H](O[C@H]2O[C@H](CO)[C@@H](O)[C@H](O)[C@H]2O)[C@H](O)[C@@H](O)[C@@H]1O", "note": "[trehalose]", "values": [{"measurement": "effect of chemical chaperones on 35S-PrPC conversion", "setting": "[1]; [6]", "result": "inhibited conversion"}, {"measurement": "effect of chemical chaperones on 35S-PrPC conversion", "setting": "[1]; [7]", "result": "None of the compounds tested affected"}, {"measurement": "effect of chemical chaperones on 35S-PrPC conversion", "setting": "[1]; reactions without PrPSc", "result": "None of the compounds tested affected"}]}, {"compound": "OC[C@H]1O[C@@](CO)(O[C@H]2O[C@H](CO)[C@@H](O)[C@H](O)[C@H]2O)[C@@H](O)[C@@H]1O", "note": "[sucrose]", "values": [{"measurement": "effect of chemical chaperones on 35S-PrPC conversion", "setting": "[1]; [6]", "result": "inhibited conversion"}, {"measurement": "effect of chemical chaperones on 35S-PrPC conversion", "setting": "[1]; [7]", "result": "None of the compounds tested affected"}, {"measurement": "effect of chemical chaperones on 35S-PrPC conversion", "setting": "[1]; reactions without PrPSc", "result": "None of the compounds tested affected"}]}, {"compound": "β-galactosidase", "values": [{"measurement": "CD spectrum of mixture with rPrPβ compared with predicted spectrum", "setting": "[4]", "result": "much smaller"}]}]}
